Results published in US20230104074A1, “BORTEZOMIB COMPOSITIONS” (MAIA Pharmaceuticals, Inc., priority 2021, published 2023).

Columns and labels:
[1] = Formulation attempts at 2.5 mg/mL with low concentrations of benzyl alcohol and other non-aqueous solvents; format: physicochemical
Procedure: Initial formulation experiments with low concentrations of various non-aqueous solvents were conducted targeting a bortezomib concentration of 2.5 mg/mL. Attempts to solubilize bortezomib were conducted using low concentrations of benzyl alcohol (2% v/v), or dimethyl sulfoxide (5% v/v), or a combination of these solvents. […] For these formulations, the non-aqueous solvent was added to bortezomib to dissolve it, followed by addition of water to the bortezomib-solvent mixture.

[2] = DMSO in water formulations: dissolution, physical stability, effect of pH on chemical stability; format: physicochemical; settings: 1 mg/mL, 1% (v/v) DMSO in water, pH 5.5
Procedure: Various concentrations of DMSO were explored as the non-aqueous component of the formulation (2% v/v to 5% v/v in water). Bortezomib was first completely dissolved in the batch volume of DMSO to form a concentrated “premix” solution prior to making up the batch to the target concentration (2.5 mg/mL) with water. This was done to facilitate the subsequent dissolution of bortezomib in the aqueous component. The pH values of the formulations were all approximately 7.
The effect of pH on bortezomib formulations using a low concentration of DMSO in water (4.5% v/v DMSO for the 2.5 mg/mL strength and 1% v/v DMSO for the 1 mg/mL strength) was then assessed. In each case, the bortezomib was first fully dissolved in the batch quantity of DMSO to form a concentrated premix solution, which was then added to water, and the pH adjusted with sodium hydroxide and/or hydrochloric acid to pH ranging from 4 to 8.5. […] Because oxidative degradation is a significant degradation pathway for bortezomib, filled vials were overlayed with nitrogen. These batches were placed on stability at accelerated (25° C.) and long-term storage conditions (2-8° C.). […]

Dissolution on addition of water to bortezomib-solvent mixture ([1]; target 2.5 mg/mL, benzyl alcohol (2% v/v), DMSO (5% v/v) or combination, mixing >3 hours): precipitated after addition of water
Total Impurities after 2 months at 25° C. (%) [2]: 0.52%
Structure (SMILES): CC(C)C[C@H](NC(=O)[C@H](Cc1ccccc1)NC(=O)c1cnccn1)B(O)O [Bortezomib, [(1R)-3-methyl-1-[[(2S)-1-oxo-3-phenyl-2-[(pyrazinylcarbonyl)amino]propyl]amino]butyl] boronic acid]
Appearance on heating the solution ([1]; heating up to 70° C., precipitated bortezomib not dissolved): a pink color formed indicating degradation of the active
